Counter-ions that a name gives are not always drawn. Like-named read-outs stand apart in the source and are kept apart here.
Columns and labels:
recombinant human 5-HT1A = biological target: T1, recombinant human 5-HT1A (Homo sapiens, UniProt P08908); assay: Radioligand binding to serotonin receptor 5-HT1A ([3H] 8-OH-DPAT, CHO membranes); conditions: for 5-HT1A % inhibition: 10 µM ligand; for inhibition at 10 µM: read-out: 5-HT1A % inhibition
T1 construct: expressed in transfected cells; host or cells: CHO
T1 sequence (P08908 1-422): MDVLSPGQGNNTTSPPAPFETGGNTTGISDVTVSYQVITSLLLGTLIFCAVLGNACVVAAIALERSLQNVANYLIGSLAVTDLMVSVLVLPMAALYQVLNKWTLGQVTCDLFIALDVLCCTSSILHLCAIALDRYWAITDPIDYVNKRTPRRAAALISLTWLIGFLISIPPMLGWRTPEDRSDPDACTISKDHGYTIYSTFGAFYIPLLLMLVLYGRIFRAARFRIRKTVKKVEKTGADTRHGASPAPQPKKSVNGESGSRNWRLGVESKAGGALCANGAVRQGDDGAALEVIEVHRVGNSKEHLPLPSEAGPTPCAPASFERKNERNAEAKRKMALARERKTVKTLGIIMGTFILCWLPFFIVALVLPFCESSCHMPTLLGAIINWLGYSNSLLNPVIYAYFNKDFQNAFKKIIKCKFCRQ
From the text: J Pharmacol Exp Ther. 306(1): 301-309, 2003]. […] Metergoline is used as positive control.

[1] = biological target: T2, serotonin receptor 5-HT1B (Rattus norvegicus, UniProt P28564); assay: Radioligand binding to serotonin receptor 5-HT1B ([125I] cyanopindolol, rat brain cortex membranes); conditions: for 5-HT1B % inhibition: 10 µM ligand; for inhibition at 10 µM: read-out: 5-HT1B % inhibition
T2 construct: membrane species are prepared from rat brains (Wistar) by homogenization of species of rat brain-cortices; from tissue; host or cells: rat (Wistar) brain cortex
T2 sequence (P28564 whole entry): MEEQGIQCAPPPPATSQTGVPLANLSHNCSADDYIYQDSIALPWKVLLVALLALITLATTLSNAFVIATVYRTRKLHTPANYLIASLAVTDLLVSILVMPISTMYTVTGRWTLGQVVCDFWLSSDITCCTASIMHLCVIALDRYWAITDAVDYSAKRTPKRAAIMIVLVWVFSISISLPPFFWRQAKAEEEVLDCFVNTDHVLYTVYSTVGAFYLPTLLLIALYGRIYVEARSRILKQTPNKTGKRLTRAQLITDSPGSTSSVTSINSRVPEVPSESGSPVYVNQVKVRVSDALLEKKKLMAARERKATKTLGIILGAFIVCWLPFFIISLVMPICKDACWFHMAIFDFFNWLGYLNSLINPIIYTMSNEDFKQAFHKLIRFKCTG
From the text: Serotonin is used as positive control.

[2] = biological target: T3, recombinant human 5-HT2A receptor (Homo sapiens, UniProt P28223); assay: Radioligand binding to serotonin receptor 5-HT2A ([3H] Ketanserin, CHO-K1 membranes); conditions: 10 µM ligand
T3 construct: expressed in transfected cells; host or cells: CHO-K1
T3 sequence (P28223 whole entry): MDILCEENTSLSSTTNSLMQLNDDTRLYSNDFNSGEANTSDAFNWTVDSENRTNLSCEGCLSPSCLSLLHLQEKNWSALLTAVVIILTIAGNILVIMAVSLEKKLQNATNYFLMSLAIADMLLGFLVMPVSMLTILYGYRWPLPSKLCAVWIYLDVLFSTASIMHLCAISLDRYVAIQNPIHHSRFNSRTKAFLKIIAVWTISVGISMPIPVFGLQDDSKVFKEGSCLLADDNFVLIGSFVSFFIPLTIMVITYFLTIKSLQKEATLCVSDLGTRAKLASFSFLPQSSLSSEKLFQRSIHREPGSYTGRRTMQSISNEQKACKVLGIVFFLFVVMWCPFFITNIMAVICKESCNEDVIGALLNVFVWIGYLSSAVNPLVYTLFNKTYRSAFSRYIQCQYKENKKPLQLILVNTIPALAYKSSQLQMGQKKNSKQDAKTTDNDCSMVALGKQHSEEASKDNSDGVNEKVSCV
From the text: 9-C. […] J Neurochem. […] Ketanserin is used as positive control.

[3] = biological target: T4, recombinant human 5-HT6 receptor (Homo sapiens, UniProt P50406); assay: Radioligand binding to serotonin receptor 5-HT6 ([3H] Lysergic acid diethylamide, HeLa membranes); conditions: for 5-HT6 % inhibition: 10 µM ligand
T4 construct: expressed in transfected cells; host or cells: HeLa
T4 sequence (P50406 whole entry): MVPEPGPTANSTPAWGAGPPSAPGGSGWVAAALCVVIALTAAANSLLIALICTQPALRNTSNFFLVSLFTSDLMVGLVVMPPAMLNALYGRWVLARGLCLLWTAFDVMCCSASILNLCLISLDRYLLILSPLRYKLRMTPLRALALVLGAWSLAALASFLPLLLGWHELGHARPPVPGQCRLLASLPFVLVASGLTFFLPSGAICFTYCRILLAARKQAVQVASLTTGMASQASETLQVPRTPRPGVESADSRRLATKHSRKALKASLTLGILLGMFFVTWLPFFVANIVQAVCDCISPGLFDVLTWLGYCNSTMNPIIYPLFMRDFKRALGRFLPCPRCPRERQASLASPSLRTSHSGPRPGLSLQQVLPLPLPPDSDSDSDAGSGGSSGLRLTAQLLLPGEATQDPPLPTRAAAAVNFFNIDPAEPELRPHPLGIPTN
From the text: Mol Pharmacol. 43:320-327, 1993]. […] Methiothepin is used as positive control.

human 5-HT7 receptor = biological target: T5, human 5-HT7 receptor (Homo sapiens, UniProt P34969); assay: Radioligand binding to serotonin receptor 5-HT7 ([3H] Lysergic acid diethylamide, CHO membranes); conditions: for 5-HT7 % inhibition: 10 µM ligand; for inhibition at 10 µM: read-out: 5-HT7 % inhibition
T5 construct: expressed in transfected cells; host or cells: CHO
T5 sequence (P34969 whole entry): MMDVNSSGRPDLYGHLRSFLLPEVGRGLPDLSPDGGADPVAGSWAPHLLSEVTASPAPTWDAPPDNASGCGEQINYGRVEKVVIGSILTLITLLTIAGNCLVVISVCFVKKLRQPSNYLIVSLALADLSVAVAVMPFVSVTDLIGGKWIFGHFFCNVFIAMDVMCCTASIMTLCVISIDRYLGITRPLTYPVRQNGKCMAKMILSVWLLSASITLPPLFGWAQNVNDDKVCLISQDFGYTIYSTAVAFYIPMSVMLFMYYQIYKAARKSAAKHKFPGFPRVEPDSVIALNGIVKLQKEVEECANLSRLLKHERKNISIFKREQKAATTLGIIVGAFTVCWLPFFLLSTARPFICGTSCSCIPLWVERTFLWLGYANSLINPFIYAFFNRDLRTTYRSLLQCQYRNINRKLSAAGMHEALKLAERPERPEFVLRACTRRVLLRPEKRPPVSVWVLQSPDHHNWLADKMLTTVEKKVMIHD
From the text: For this purpose sDNA of human 5-HT7 receptor is expressed in CHO cells as it was described in [Shen Y, Monsma FJ Jr, Metcalf MA, Jose PA, Hamblin MW, and Sibley DR. […] J. Biol. Chem. 1993, 268, 18200 - 18204]. […] J. Pharmacol. Exp. Ther. 1994, 268:1403-1410]. […] Methiothepin is used as positive control.

[4] = biological target: T6, recombinant human 5-HT2B receptor (Homo sapiens, UniProt P41595); assay: Radioligand binding to serotonin receptor 5-HT2B ([3H] Lysergic acid diethylamide, CHO-K1 membranes)
T6 construct: expressed in transfected cells; host or cells: CHO-K1
T6 sequence (P41595 whole entry): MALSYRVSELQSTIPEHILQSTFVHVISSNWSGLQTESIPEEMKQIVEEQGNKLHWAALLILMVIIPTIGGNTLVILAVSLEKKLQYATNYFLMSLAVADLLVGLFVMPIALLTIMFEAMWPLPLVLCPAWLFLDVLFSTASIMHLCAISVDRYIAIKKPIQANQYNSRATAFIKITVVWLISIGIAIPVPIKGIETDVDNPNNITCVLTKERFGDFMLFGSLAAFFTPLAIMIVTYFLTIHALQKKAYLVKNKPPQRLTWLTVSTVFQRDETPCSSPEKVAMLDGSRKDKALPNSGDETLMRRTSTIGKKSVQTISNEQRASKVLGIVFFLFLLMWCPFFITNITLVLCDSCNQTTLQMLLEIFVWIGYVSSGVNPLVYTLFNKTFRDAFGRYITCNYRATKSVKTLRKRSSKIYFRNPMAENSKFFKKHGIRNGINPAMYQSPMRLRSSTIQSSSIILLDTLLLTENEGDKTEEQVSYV
Experimental: For this purpose membrane species are prepared from CHO-K1 cells comprising recombinant human 5-HT2B receptor by homogenization of recombinant cells in glass homogenizer with the subsequent separation of plasmatic membranes from cell nuclei, mitochondrias and cell wreckages by differential centrifugation. […] After incubation the samples are filtered in vacuo on glass-microfiber filters G/F (Millipor, USA), filters are washed three times with cold solution of medium and radioactivity is measured by scintillation counter MicroBeta 340 (Perkin Elmer, USA). […] Ketanserin is used as positive control. The tested compounds' binding to the receptor is determined by their ability to displace the radioligand and is expressed in percent of displacement (%I). Values of %I are calculated according to the following equation: %I = (TA-CA)/(TA-NA)*100, [formula] wherein: TA - is the overall radioactivity in the presence of radioligand only, CA - is the radioactivity in the presence of radioligand and tested compound and NA - is the radioactivity in the presence of radioligand and Serotonin (10 µM).

[5] = biological target: T7, recombinant human 5-HT2C receptor (Homo sapiens, UniProt P28335); assay: Radioligand binding to serotonin receptor 5-HT2C ([3H] Mesulergine, CHO-K1 membranes)
T7 construct: expressed in transfected cells; host or cells: CHO-K1
T7 sequence (P28335 33-458): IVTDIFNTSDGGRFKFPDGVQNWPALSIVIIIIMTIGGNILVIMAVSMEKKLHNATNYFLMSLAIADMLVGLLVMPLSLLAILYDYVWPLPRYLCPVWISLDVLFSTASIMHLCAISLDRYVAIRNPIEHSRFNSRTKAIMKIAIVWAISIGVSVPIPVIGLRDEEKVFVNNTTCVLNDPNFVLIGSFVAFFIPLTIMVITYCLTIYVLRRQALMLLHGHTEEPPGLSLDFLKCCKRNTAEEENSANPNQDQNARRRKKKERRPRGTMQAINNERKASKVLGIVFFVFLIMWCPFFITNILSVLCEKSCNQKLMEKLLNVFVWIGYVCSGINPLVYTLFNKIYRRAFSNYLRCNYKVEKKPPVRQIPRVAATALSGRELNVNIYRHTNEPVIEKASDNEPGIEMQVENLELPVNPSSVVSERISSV
From the text: J Neurochem. 69: 1449 - 1458, 1997]. […] SB242084 is used as positive control.

[6] = read-out: 5-HT2B % inhibition, 10 µM ligand

SMILES	inhibition at 10 µM [1] [%]	inhibition at 10 µM [2] [%]	inhibition at 10 µM ([4]; read-out: 5-HT2B % inhibition) [%]	inhibition at 10 µM ([5]; read-out: 5-HT2C % inhibition) [%]	inhibition at 10 µM (human 5-HT7 receptor) [%]	inhibition at 10 µM (recombinant human 5-HT1A) [%]	inhibition at 10 µM ([3]; read-out: 5-HT6 % inhibition) [%]	further results
CN1CCc2c(c3cc(F)ccc3n2C#Cc2ccccc2)C1 [1.1(2)]								5-HT1A % inhibition (recombinant human 5-HT1A): 30%; 5-HT1B % inhibition [1]: 6%; 5-HT2A % inhibition [2]: 99%; 5-HT6 % inhibition [3]: 95%; 5-HT7 % inhibition (human 5-HT7 receptor): 59%
Cc1ccc2c(c1)c1c(n2C#Cc2ccccc2)CCN(C)C1 [1.1(4)]								5-HT1A % inhibition (recombinant human 5-HT1A): 38%; 5-HT1B % inhibition [1]: 26%; 5-HT2A % inhibition [2]: 99%; 5-HT2B % inhibition ([4]; 10 µM ligand): 86%; 5-HT2C % inhibition ([5]; 10 µM ligand): 99%; 5-HT6 % inhibition [3]: 97%; 5-HT7 % inhibition (human 5-HT7 receptor): 93%
CN1CCc2c(c3cc(C(F)(F)F)ccc3n2CCc2ccccc2)C1 [1.1.2(1-7)·HCl, 2-methyl-8-trifluoromethyl-5-phenethyl-1,2,3,4-tetrahydro-1H-pyrido[4,3-b]indole]	13	91	89	92	94			
CN1CCc2c(c3cc(F)ccc3n2CC(O)c2ccccc2)C1 (stereo not shown) [1.1.2(1-9)]								5-HT1A % inhibition (recombinant human 5-HT1A): -2%; 5-HT1B % inhibition [1]: 5%; 5-HT2A % inhibition [2]: 97%; 5-HT6 % inhibition [3]: 89%; 5-HT7 % inhibition (human 5-HT7 receptor): 84%
Cc1ccc2c(c1)c1c(n2CC(O)c2ccccc2)CCN(C)C1 (stereo not shown) [1.1.2(1-10), 2,8-dimethyl-5-[(2-phenyl-2-hydroxy)ethyl]-1,2,3,4-tetrahydro-1H-pyrido[4,3-b]indole]								5-HT1A % inhibition (recombinant human 5-HT1A): 24%; 5-HT1B % inhibition [1]: 41%; 5-HT2A % inhibition [2]: 97%; 5-HT6 % inhibition [3]: 102%; 5-HT7 % inhibition (human 5-HT7 receptor): 96%
COc1ccc(CCn2c3c(c4cc(C)ccc42)CN(C)CC3)cc1 [1.1.2(1-14)·HCl]	52		97	97	100	57	108	
Cc1ccc2c(c1)c1c(n2CCc2ccc(F)cc2)CCN(C)C1 [1.1.2(1-16)·HCl]	36	99	91	99	95	37	103	
Cc1ccc2c(c1)c1c(n2CCc2ccc(C(F)(F)F)cc2)CCN(C)C1 [1.1.2(1-18)·HCl]	45	100		99	103	53	94	inhibition at 10 µM [4, 6]: 87%
Cc1ccc2c(c1)c1c(n2CCc2ccccc2)CCCN(C)C1 [1.2.2(1-2)·HCl]		89			97	20		inhibition at 10 µM [4, 6]: 84%
Cc1ccc(CCn2c3c(c4cc(F)ccc42)CN(C)CCC3)cn1 [1.2.2(4-2)·2HCl]	60							inhibition at 1 µM ([5]; read-out: 5-HT2C % inhibition): 78%; inhibition at 1 µM ([3]; read-out: 5-HT6 % inhibition): 84%
Cc1ccc2c(c1)c1c(n2CCCc2ccccc2)CCN(C)C1 [1.3.3(2)·HCl]	31	99	95	98			103	
CN1CCc2c(c3cc(F)ccc3n2CCCc2ccccc2)C1 [1.3.3(8)·HCl]	12	97	96	97	83	-4	93	
CN1CCc2c(c3cc(F)ccc3n2Cc2ccccc2)C1 [1.9(3)·HCl]	12	97	95	100	81		89	
Cc1ccc2c(c1)c1c(n2Cc2ccccc2)CCCN(C)C1 [1.10(4)·HCl]	31	91	70	98	75	19	69	

Source: patent EP2236511A2, “LIGANDS OF ALPHA-ADRENOCEPTORS AND OF DOPAMINE, HISTAMINE, IMIDAZOLINE AND SEROTONIN RECEPTORS AND THE USE THEREOF” (priority 2007, dated 2009)
